{
  "source": "paper PMC3187562",
  "about": "(ACS medicinal chemistry letters, 2011)",
  "origin": "cited, not measured here",
  "key": {"ΔF508-CFTR [1]": {"test_system": "ΔF508-CFTR", "conditions": "CF lung cell line expressing ΔF508-CFTR from a viral promoter"}, "ΔF508-CFTR [2]": {"test_system": "ΔF508-CFTR", "conditions": "Phase 2a clinical study, CF patients"}},
  "data": [
    {"compound": "CC(/C=C/C(=O)NO)=C\\[C@@H](C)C(=O)c1ccc(N(C)C)cc1", "note": "[compound 1, trichostatin A]", "values": [
      {"measurement": "increase of ΔF508-CFTR mRNA levels", "setting": "ΔF508-CFTR [1]", "value": "> 15", "unit": "fold"}
    ]},
    {"compound": "O=C(CCCCCCC(=O)Nc1ccccc1)NO", "note": "[compound 2, vorinostat]", "values": [
      {"measurement": "increase of ΔF508-CFTR mRNA levels", "setting": "ΔF508-CFTR [1]", "value": "> 15", "unit": "fold"},
      {"measurement": "increase of ΔF508-CFTR protein levels", "setting": "ΔF508-CFTR [1]", "value": 25, "unit": "fold"}
    ]},
    {"compound": "Cc1ccc(NC(=O)C2(c3ccc4c(c3)OC(F)(F)O4)CC2)nc1-c1cccc(C(=O)O)c1", "note": "[VX-809]", "values": [
      {"measurement": "sweat chloride levels (key biomarker)", "setting": "ΔF508-CFTR [2]", "value": "reduced sweat chloride levels"}
    ]},
    {"compound": "C/C=C1\\NC(=O)[C@H]2CSSCC/C=C/[C@H](CC(=O)N[C@H](C(C)C)C(=O)N2)OC(=O)[C@H](C(C)C)NC1=O", "note": "[romidepsin]", "values": [
      {"measurement": "expression of HDAC7 in treated cells", "setting": "HDAC7", "value": "selectively down-regulated"}
    ]}
  ]
}
